25 compounds from BindingDB's records for doi:10.1021/jm070849r (Pfizer, 2008) can be followed below.

The structures appear in SMILES notation.

One experiment has as its target T1, 3-hydroxy-3-methylglutaryl-coenzyme A reductase (Rattus norvegicus, UniProt P51639).
T1 sequence (P51639 whole entry): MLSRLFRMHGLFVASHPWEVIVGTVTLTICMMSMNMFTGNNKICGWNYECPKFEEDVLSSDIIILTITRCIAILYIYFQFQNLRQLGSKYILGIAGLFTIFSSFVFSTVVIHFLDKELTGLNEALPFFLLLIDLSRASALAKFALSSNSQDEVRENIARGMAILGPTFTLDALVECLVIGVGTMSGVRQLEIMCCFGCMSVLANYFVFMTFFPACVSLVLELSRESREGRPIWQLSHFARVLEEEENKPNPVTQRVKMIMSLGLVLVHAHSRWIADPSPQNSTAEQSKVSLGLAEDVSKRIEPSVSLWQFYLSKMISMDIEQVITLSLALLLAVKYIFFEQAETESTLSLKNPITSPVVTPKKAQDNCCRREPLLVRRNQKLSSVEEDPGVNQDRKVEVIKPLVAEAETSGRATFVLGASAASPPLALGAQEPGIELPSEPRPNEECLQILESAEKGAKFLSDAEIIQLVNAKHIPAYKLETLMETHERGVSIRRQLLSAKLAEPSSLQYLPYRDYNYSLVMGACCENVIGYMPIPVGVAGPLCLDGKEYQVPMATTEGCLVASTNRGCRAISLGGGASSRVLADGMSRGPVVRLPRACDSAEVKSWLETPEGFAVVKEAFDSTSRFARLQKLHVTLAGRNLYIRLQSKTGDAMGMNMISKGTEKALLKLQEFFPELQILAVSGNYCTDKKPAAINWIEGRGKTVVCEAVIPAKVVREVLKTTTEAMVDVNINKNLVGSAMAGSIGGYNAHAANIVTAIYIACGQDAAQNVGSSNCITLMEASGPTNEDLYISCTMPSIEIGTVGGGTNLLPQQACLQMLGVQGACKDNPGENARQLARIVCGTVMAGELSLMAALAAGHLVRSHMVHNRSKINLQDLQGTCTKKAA
The experiment in a line: HMG-CoA Reductase Enzyme Assay and Inhibition of Cellular Cholesterol Synthesis Assay. As to conditions: pH 7.2; 37 °C. On the procedure: Enzyme Assay for HMG-CoA reductase was based on the conversion of isotopically labeled HMG-CoA to mevalonic acid using rat liver microsomes as enzyme source. The product, [14C]-mevalonic acid was lactonized and separated from excess substrate via an anion ion exchange resin column, and radioactivity was counted on a scintillation counter. The IC50 values were calculated with GraphPad software (Prism). The cellular assay EC50/IC50 values were obtained from inhibition of cholesterol synthesis in rat hepatocyte.
`CC(C)c1nc(N(C)S(C)(=O)=O)nc(-c2ccc(F)cc2)c1/C=C/[C@@H](O)C[C@@H](O)CC(=O)O` had an IC50 of 0.3 nM.
On the same count and under the same terms, the result for `CC(C)c1c(C(=O)NCc2ccccc2)nn(-c2ccc(F)cc2)c1CC[C@@H](O)C[C@@H](O)CC(=O)O` [(3R,5R)-7-[3-(benzylcarbamoyl)-1-(4-fluorophenyl)-4-(propan-2-yl)-1H-pyrazol-5-yl]-3,5-dihydroxyheptanoic acid] reads 0.3 nM; that for `CC[C@H](C)C(=O)O[C@H]1C[C@H](O)C=C2C=C[C@H](C)[C@H](CC[C@@H](O)C[C@@H](O)CC(=O)O)[C@H]21` [(3R,5R)-7-[(1S,2S,6S,8S,8aR)-6-hydroxy-2-methyl-8-{[(2S)-2-methylbutanoyl]oxy}-1,2,6,7,8,8a-hexahydronaphthalen-1-yl]-3,5-dihydroxyheptanoic acid], 17 nM.
Same read-out and setting: as for `COCc1c(C(C)C)nc(C(C)C)c(/C=C/[C@@H](O)C[C@@H](O)CC(=O)O)c1-c1ccc(F)cc1` [(3R,5S,6E)-7-[4-(4-fluorophenyl)-5-(methoxymethyl)-2,6-bis(propan-2-yl)pyridin-3-yl]-3,5-dihydroxyhept-6-enoic acid], the figure is 1.7 nM.
Same read-out and setting: as for `Cc1ccc(CNC(=O)c2nn(-c3ccc(F)cc3)c(CC[C@@H](O)C[C@@H](O)CC(=O)O)c2C(C)C)cc1` [pyrazole-based inhibitor, 35], the figure is 0.9 nM; as for `CC(C)c1c(C(=O)N(C)Cc2cccc(F)c2F)nn(-c2ccc(F)cc2)c1CC[C@@H](O)C[C@@H](O)CC(=O)O` [sodium (3R,5R)-7-(3-{[(2,3-difluorophenyl)methyl](methyl)carbamoyl}-1-(4-fluorophenyl)-4-(propan-2-yl)-1H-pyrazol-5-yl)-3,5-dihydroxyheptanoate], 0.6 nM.
Compound `CC(C)c1c(C(=O)N(C)Cc2ccc(F)cc2F)nn(-c2ccc(F)cc2)c1CC[C@@H](O)C[C@@H](O)CC(=O)O` [sodium (3R,5R)-7-(3-{[(2,4-difluorophenyl)methyl](methyl)carbamoyl}-1-(4-fluorophenyl)-4-(propan-2-yl)-1H-pyrazol-5-yl)-3,5-dihydroxyheptanoate] had an IC50 of 2.1 nM.
On the same count and under the same terms, as for `CC(C)c1c(C(=O)NCc2cccc(C#N)c2)nn(-c2ccc(F)cc2)c1CC[C@@H](O)C[C@@H](O)CC(=O)O` [sodium (3R,5R)-7-(3-{[(3-cyanophenyl)methyl]carbamoyl}-1-(4-fluorophenyl)-4-(propan-2-yl)-1H-pyrazol-5-yl)-3,5-dihydroxyheptanoate], the figure is 1.4 nM.
Same read-out and setting: the result for `COCc1cccc(CNC(=O)c2nn(-c3ccc(F)cc3)c(CC[C@@H](O)C[C@@H](O)CC(=O)O)c2C(C)C)c1` [sodium (3R,5R)-7-[1-(4-fluorophenyl)-3-({[3-(methoxymethyl)phenyl]methyl}carbamoyl)-4-(propan-2-yl)-1H-pyrazol-5-yl]-3,5-dihydroxyheptanoate] reads 0.7 nM.
For `CC(C)c1c(C(=O)N2CCCCC2c2ccccc2)nn(-c2ccc(F)cc2)c1CC[C@@H](O)C[C@@H](O)CC(=O)O` (stereo partly drawn) [sodium (3R,5R)-7-[1-(4-fluorophenyl)-3-[(2-phenylpiperidin-1-yl)carbonyl]-4-(propan-2-yl)-1H-pyrazol-5-yl]-3,5-dihydroxyheptanoate], 1.1 nM corresponded to half-maximal inhibition (IC50).
On to `CC(C)c1c(C(=O)N2CCCC2c2ccccc2)nn(-c2ccc(F)cc2)c1CC[C@@H](O)C[C@@H](O)CC(=O)O` (stereo partly drawn) [sodium (3R,5R)-7-[1-(4-fluorophenyl)-3-[(2-phenylpyrrolidin-1-yl)carbonyl]-4-(propan-2-yl)-1H-pyrazol-5-yl]-3,5-dihydroxyheptanoate], for which the IC50 came out at 4 nM.
Same read-out and setting: the result for `CC(C)c1c(C(=O)N2CCCC(c3ccccc3)C2)nn(-c2ccc(F)cc2)c1CC[C@@H](O)C[C@@H](O)CC(=O)O` (stereo partly drawn) [sodium (3R,5R)-7-[1-(4-fluorophenyl)-3-[(3-phenylpiperidin-1-yl)carbonyl]-4-(propan-2-yl)-1H-pyrazol-5-yl]-3,5-dihydroxyheptanoate] reads 0.4 nM; that for `CC(C)c1c(C(=O)N(C)Cc2ccccc2F)nn(-c2ccc(F)cc2)c1CC[C@@H](O)C[C@@H](O)CC(=O)O` [sodium (3R,5R)-7-[1-(4-fluorophenyl)-3-{[(2-fluorophenyl)methyl](methyl)carbamoyl}-4-(propan-2-yl)-1H-pyrazol-5-yl]-3,5-dihydroxyheptanoate], 0.5 nM; that for `CC(C)c1c(C(=O)N(C)Cc2cccc(F)c2)nn(-c2ccc(F)cc2)c1CC[C@@H](O)C[C@@H](O)CC(=O)O` [sodium (3R,5R)-7-[1-(4-fluorophenyl)-3-{[(3-fluorophenyl)methyl](methyl)carbamoyl}-4-(propan-2-yl)-1H-pyrazol-5-yl]-3,5-dihydroxyheptanoate], 0.2 nM.
Still for that read-out and setting: as for `CC(C)c1c(C(=O)N2CCC[C@H](c3ccccc3)C2)nn(-c2ccc(F)cc2)c1CC[C@@H](O)C[C@@H](O)CC(=O)O` [sodium (3R,5R)-7-[1-(4-fluorophenyl)-3-{[(3R)-3-phenylpiperidin-1-yl]carbonyl}-4-(propan-2-yl)-1H-pyrazol-5-yl]-3,5-dihydroxyheptanoate], the figure is 0.3 nM.
In turn, `CC(C)c1c(C(=O)N(C)Cc2ccc(F)cc2)nn(-c2ccc(F)cc2)c1CC[C@@H](O)C[C@@H](O)CC(=O)O` [sodium (3R,5R)-7-[1-(4-fluorophenyl)-3-{[(4-fluorophenyl)methyl](methyl)carbamoyl}-4-(propan-2-yl)-1H-pyrazol-5-yl]-3,5-dihydroxyheptanoate] came in with an IC50 of 0.5 nM.
The same measure, in the same setting: the result for `CC(C)c1c(C(=O)NCc2ccc(F)cc2)nn(-c2ccc(F)cc2)c1CC[C@@H](O)C[C@@H](O)CC(=O)O` [sodium (3R,5R)-7-[1-(4-fluorophenyl)-3-{[(4-fluorophenyl)methyl]carbamoyl}-4-(propan-2-yl)-1H-pyrazol-5-yl]-3,5-dihydroxyheptanoate] reads 0.7 nM.
On the same count and under the same terms, as for `COc1ccc(CN(C)C(=O)c2nn(-c3ccc(F)cc3)c(CC[C@@H](O)C[C@@H](O)CC(=O)O)c2C(C)C)cc1` [sodium (3R,5R)-7-[1-(4-fluorophenyl)-3-{[(4-methoxyphenyl)methyl](methyl)carbamoyl}-4-(propan-2-yl)-1H-pyrazol-5-yl]-3,5-dihydroxyheptanoate], the figure is 0.3 nM.
The same measure, in the same setting: the result for `COc1ccc(CNC(=O)c2nn(-c3ccc(F)cc3)c(CC[C@@H](O)C[C@@H](O)CC(=O)O)c2C(C)C)cc1` [sodium (3R,5R)-7-[1-(4-fluorophenyl)-3-{[(4-methoxyphenyl)methyl]carbamoyl}-4-(propan-2-yl)-1H-pyrazol-5-yl]-3,5-dihydroxyheptanoate] reads 0.4 nM.
`Cc1ccccc1CN(C)C(=O)c1nn(-c2ccc(F)cc2)c(CC[C@@H](O)C[C@@H](O)CC(=O)O)c1C(C)C` [sodium (3R,5R)-7-[1-(4-fluorophenyl)-3-{methyl[(2-methylphenyl)methyl]carbamoyl}-4-(propan-2-yl)-1H-pyrazol-5-yl]-3,5-dihydroxyheptanoate] yielded a half-inhibitory concentration (IC50) of 2.1 nM.
The compound `Cc1cccc(CN(C)C(=O)c2nn(-c3ccc(F)cc3)c(CC[C@@H](O)C[C@@H](O)CC(=O)O)c2C(C)C)c1` [sodium (3R,5R)-7-[1-(4-fluorophenyl)-3-{methyl[(3-methylphenyl)methyl]carbamoyl}-4-(propan-2-yl)-1H-pyrazol-5-yl]-3,5-dihydroxyheptanoate] had a half-maximal inhibitory concentration (IC50) of 0.6 nM.
On the same count and under the same terms, the result for `Cc1ccc(CN(C)C(=O)c2nn(-c3ccc(F)cc3)c(CC[C@@H](O)C[C@@H](O)CC(=O)O)c2C(C)C)cc1` [sodium (3R,5R)-7-[1-(4-fluorophenyl)-3-{methyl[(4-methylphenyl)methyl]carbamoyl}-4-(propan-2-yl)-1H-pyrazol-5-yl]-3,5-dihydroxyheptanoate] reads 1.8 nM.
On to `CC(C)c1c(C(=O)NCc2ccc(C(=O)N(C)C)cc2)nn(-c2ccc(F)cc2)c1CC[C@@H](O)C[C@@H](O)CC(=O)O` [sodium (3R,5R)-7-[3-({[4-(dimethylcarbamoyl)phenyl]methyl}carbamoyl)-1-(4-fluorophenyl)-4-(propan-2-yl)-1H-pyrazol-5-yl]-3,5-dihydroxyheptanoate], for which half-maximal inhibition (IC50) required 23 nM.
The same measure, in the same setting: as for `CCN(Cc1ccccc1)C(=O)c1nn(-c2ccc(F)cc2)c(CC[C@@H](O)C[C@@H](O)CC(=O)O)c1C(C)C` [sodium (3R,5R)-7-{3-[benzyl(ethyl)carbamoyl]-1-(4-fluorophenyl)-4-(propan-2-yl)-1H-pyrazol-5-yl}-3,5-dihydroxyheptanoate], the figure is 5.5 nM; as for `CC(C)c1c(C(=O)N(C)Cc2ccccc2)nn(-c2ccc(F)cc2)c1CC[C@@H](O)C[C@@H](O)CC(=O)O` [sodium (3R,5R)-7-{3-[benzyl(methyl)carbamoyl]-1-(4-fluorophenyl)-4-(propan-2-yl)-1H-pyrazol-5-yl}-3,5-dihydroxyheptanoate], 0.2 nM.

Still in this experiment, the particulars now being: pH 7.2; 37 °C; read-out: IC50.
For `Cc1ccccc1CN(C)C(=O)c1nn(-c2ccc(F)cc2)c(CC[C@@H](O)C[C@@H](O)CC(=O)O)c1C(C)C` [sodium (3R,5R)-7-[1-(4-fluorophenyl)-3-{methyl[(2-methylphenyl)methyl]carbamoyl}-4-(propan-2-yl)-1H-pyrazol-5-yl]-3,5-dihydroxyheptanoate], the IC50 amounted to 16 nM.
